{
  "source": "patent US20210121486A1",
  "about": "“ANIMAL THERAPEUTIC AND FEED COMPOSITIONS AND METHODS OF USE” (Cadena Bio, Inc., priority 2015, published 2021)",
  "tested_on": "common gut microbes",
  "assay": "Gut microbe growth on carbohydrate food sources (96-well carbohydrate array, A600 growth curves), whole panel",
  "format": "cell-based",
  "settings": "all of the gut microflora cultures, sole carbohydrate source, anaerobic, 37° C.",
  "protocol": "The ability of common gut microbes to grow on carbohydrate food sources was measured using a custom carbohydrate array constructed in a 96-well format. See for example, Martens E C, et al, “Recognition and Degradation of Plant Cell Wall Polysaccharides by Two Human Gut Symbionts,” PLOS Biology, volume 9, issue 12, page e1001221 (2011) and Martens E C, Chiang H C, Gordon J I, “Mucosal glycan foraging enhances fitness and transmission of a saccharolytic human gut bacterial symbiont.” Cell Host Microbe 4: 447-457 (2008). Each well of a flat bottom 96-well plate was loaded with 100 µL of each sterilized carbohydrate stock at 2× concentration.\nEach substrate was represented in […] on each assay plate in two non-adjacent wells. Two carbohydrate-free water wells were included as negative controls. […] Plates were then loaded into an automated plate handling device coupled to an absorbance reader. Absorbance at 600 nm (A600) was measured for each well at 10-15 min intervals. […]",
  "data": [
    {"smiles": "CC(=O)N[C@H]1C(O)O[C@H](CO)[C@@H](O)[C@@H]1O", "note": "(stereo partly shown) [N-acetylglucosamine]", "values": [
      {"measurement": "growth of the gut microflora cultures on the carbohydrate", "value": "grew well"}
    ]}
  ]
}
